Reference: US9655363B2, “Microbiocides” (Syngenta Participations AG, priority 2013, dated 2017)

Assays:
[1] = tested on: Blumeria Graminis f. sp. Tritici (Erysiphe Graminis f. sp. Tritici); assay: Blumeria graminis f. sp. tritici / wheat / leaf disc preventative (powdery mildew on wheat); format: in vivo; conditions: foliar, wheat leaf disc cv. Kanzler, compared to untreated, 6-8 days after application, read-out: disease control
Procedure: Fungicidal Activity Against Blumeria Graminis f. sp. Tritici (Erysiphe Graminis f. sp. Tritici)/Wheat/Leaf Disc Preventative (Powdery Mildew on Wheat) Wheat leaf segments cv. Kanzler were placed on agar in a multiwell plate (24-well format) and sprayed with the formulated test compound diluted in water. The leaf disks were inoculated by shaking powdery mildew infected plants above the test plates 1 day after application. The inoculated leaf disks were incubated at 20° C. and 60% rh under a light regime of 24 h darkness followed by 12 h light/12 h darkness in a climate chamber and the activity of a compound was assessed as percent disease control compared to untreated when an appropriate level of disease damage appears on untreated check leaf segments (6-8 days after application).

[2] = tested on: Thanatephorus Cucumeris (Rhizoctonia Solani); assay: Thanatephorus cucumeris (Rhizoctonia solani) / liquid culture (foot rot, damping-off); format: cell-based; conditions: liquid culture (PDB), growth inhibition photometrically 3-4 days after application, read-out: disease control
Procedure: Fungicidal Activity Against Thanatephorus Cucumeris (Rhizoctonia Solani)/Liquid Culture (Foot Rot, Damping-Off) Mycelia fragments of a newly grown liquid culture of the fungus were directly mixed into nutrient broth (PDB potato dextrose broth). After placing a (DMSO) solution of the test compounds into a microtiter plate (96-well format), the nutrient broth containing the fungal material was added. The test plates were incubated at 24° C. and the inhibition of growth was determined photometrically 3-4 days after application. Compounds (from table T1) 1, 2, 4, 7, 8, 10, 11, 13, 14 and 17 at 200 ppm give at least 80% disease control in this test when compared to untreated control leaf disks under the same conditions, which show extensive disease development.

[3] = tested on: Mycosphaerella Arachidis (Cercospora Arachidicola); assay: Mycosphaerella arachidis (Cercospora arachidicola) / liquid culture (early leaf spot); format: cell-based; conditions: liquid culture (PDB), growth inhibition photometrically 4-5 days after application, read-out: disease control
Procedure: (§1) Fungicidal Activity Against Mycosphaerella Arachidis (Cercospora Arachidicola)/Liquid Culture (Early Leaf Spot) Conidia of the fungus from cryogenic storage were directly mixed into nutrient broth (PDB potato dextrose broth). After placing a (DMSO) solution of test compound into a microtiter plate (96-well format), the nutrient broth containing the fungal spores was added. The test plates were incubated at 24° C. and the inhibition of growth was determined photometrically 4-5 days after application.

[4] = tested on: Puccinia Recondita f. sp. Tritici; assay: Puccinia recondita f. sp. tritici / wheat / leaf disc curative (brown rust); format: in vivo; conditions: foliar, 192 h, compared to untreated, 8 days after inoculation, read-out: disease control
Procedure: Fungicidal Activity Against Puccinia Recondita f. sp. Tritici/Wheat/Leaf Disc Curative (Brown Rust) Wheat leaf segments are placed on agar in multiwell plates (24-well format). The leaf disks are then inoculated with a spore suspension of the fungus. One day after inoculation the test solution is applied. After appropriate incubation the activity of a compound is assessed 8 dpi (days after inoculation) as curative fungicidal activity. Dose range: 200-22 ppm.

[5] = tested on: Puccinia Recondita f. sp. Tritici; assay: Puccinia recondita f. sp. tritici / wheat / leaf disc preventative (brown rust); format: in vivo; conditions: foliar, wheat leaf disc cv. Kanzler, compared to untreated, 7-9 days after application, read-out: disease control
Procedure: Fungicidal Activity Against Puccinia Recondita f. sp. Tritici/Wheat/Leaf Disc Preventative (Brown Rust) Wheat leaf segments cv. Kanzler were placed on agar in multiwell plates (24-well format) and sprayed with the formulated test compound diluted in water. The leaf disks were inoculated with a spore suspension of the fungus 1 day after application. The inoculated leaf segments were incubated at 19° C. and 75% rh under a light regime of 12 h light/12 h darkness in a climate cabinet and the activity of a compound was assessed as percent disease control compared to untreated when an appropriate level of disease damage appears in untreated check leaf segments (7-9 days after application).

[6] = tested on: Mycosphaerella Graminicola (Septoria Tritici); assay: Mycosphaerella graminicola (Septoria tritici) / liquid culture (Septoria blotch); format: cell-based; conditions: Zymoseptoria tritici, liquid culture (PDB), growth inhibition photometrically 4-5 days after application, read-out: disease control
Procedure: as §1, with “Graminicola (Septoria Tritici)/Liquid” for “Arachidis (Cercospora Arachidicola)/Liquid”, “(Septoria Blotch)” for “(Early Leaf Spot)”

OC(Cn1cncn1)(c1ccc(F)cc1)C1(c2ccc(Br)cn2)CC1 (stereo not shown) [Compound 4, 1-[1-(5-bromo-2-pyridyl)cyclopropyl]-1-(4-fluorophenyl)-2-(1,2,4-triazol-1-yl)ethanol]
≥ 80%: pest or weed control at 200 ppm [1] | inhibition of growth at 200 ppm [2] | inhibition of growth at 200 ppm [3] | pest or weed control at 200 ppm [4] | pest or weed control at 200 ppm [5]

OC(Cn1cncn1)(c1ccc(F)cc1)C1(c2ccc(Cl)nc2)CC1 (stereo not shown) [Compound 9, 1-[1-(6-chloro-3-pyridyl)cyclopropyl]-1-(4-fluorophenyl)-2-(1,2,4-triazol-1-yl)ethanol]
≥ 80%: inhibition of growth at 200 ppm [6] | pest or weed control at 200 ppm [1] | inhibition of growth at 200 ppm [3] | pest or weed control at 200 ppm [4] | pest or weed control at 200 ppm [5]

N#Cc1ccc(-c2ccc(C3(C(O)(Cn4cncn4)c4ccc(F)cc4)CC3)nc2)cc1 (stereo not shown) [Compound 8, 4-[6-[1-[1-(4-fluorophenyl)-1-hydroxy-2-(1,2,4-triazol-1-yl)ethyl]cyclopropyl]-3-pyridyl]benzonitrile]
≥ 80%: inhibition of growth at 200 ppm [6] | pest or weed control at 200 ppm [1] | inhibition of growth at 200 ppm [2] | inhibition of growth at 200 ppm [3] | pest or weed control at 200 ppm [4] | pest or weed control at 200 ppm [5]

OC(Cn1cncn1)(c1ccc(F)cc1)C1(c2ccc(-c3ccc(Cl)cc3F)cn2)CCC1 (stereo not shown) [Compound 19, 1-[1-[5-(4-chloro-2-fluoro-phenyl)-2-pyridyl]cyclobutyl]-1-(4-fluorophenyl)-2-(1,2,4-triazol-1-yl)ethanol]
≥ 80%: inhibition of growth at 200 ppm [6] | pest or weed control at 200 ppm [1] | inhibition of growth at 200 ppm [3]

OC(Cn1cncn1)(c1ccc(Cl)cc1)C1(c2ccc(Cl)cn2)CCC1 (stereo not shown) [Compound 16, 1-(4-chlorophenyl)-1-[1-(5-chloro-2-pyridyl)cyclobutyl]-2-(1,2,4-triazol-1-yl)ethanol]
≥ 80%: inhibition of growth at 200 ppm [6] | pest or weed control at 200 ppm [1] | inhibition of growth at 200 ppm [3] | pest or weed control at 200 ppm [4] | pest or weed control at 200 ppm [5]

OC(Cn1cncn1)(c1ccc(F)cc1)C1(c2ccc(C3CC3)cn2)CC1 (stereo not shown) [Compound 7, 1-[1-(5-cyclopropyl-2-pyridyl)cyclopropyl]-1-(4-fluorophenyl)-2-(1,2,4-triazol-1-yl)ethanol]
≥ 80%: inhibition of growth at 200 ppm [6] | pest or weed control at 200 ppm [1] | inhibition of growth at 200 ppm [2] | inhibition of growth at 200 ppm [3] | pest or weed control at 200 ppm [4] | pest or weed control at 200 ppm [5]

OC(Cn1cncn1)(c1ccc(F)cc1)C1(c2ccc(Br)c(-c3ccc(F)cc3)n2)CC1 (stereo not shown) [Compound 6, 1-[1-[5-bromo-6-(4-fluorophenyl)-2-pyridyl]cyclopropyl]-1-(4-fluorophenyl)-2-(1,2,4-triazol-1-yl)ethanol]
≥ 80%: pest or weed control at 200 ppm [1] | inhibition of growth at 200 ppm [3] | pest or weed control at 200 ppm [4] | pest or weed control at 200 ppm [5]

OC(Cn1ccnc1)(c1ccc(F)cc1)C1(c2ccc(Br)cn2)CC1 (stereo not shown) [Compound 3, 1-[1-(5-bromo-2-pyridyl)cyclopropyl]-1-(4-fluorophenyl)-2-imidazol-1-yl-ethanol]
≥ 80%: pest or weed control at 200 ppm [1] | pest or weed control at 200 ppm [4] | pest or weed control at 200 ppm [5]

OC(Cn1cncn1)(c1ccc(F)cc1)C1(c2ccccn2)CC1 (stereo not shown) [Compound 10, 1-(4-fluorophenyl)-1-[1-(2-pyridyl)cyclopropyl]-2-(1,2,4-triazol-1-yl)ethanol]
≥ 80%: inhibition of growth at 200 ppm [6] | pest or weed control at 200 ppm [1] | inhibition of growth at 200 ppm [2] | inhibition of growth at 200 ppm [3] | pest or weed control at 200 ppm [4] | pest or weed control at 200 ppm [5]

OC(Cn1cncn1)(c1ccc(Cl)cc1)C1(c2ccccn2)CCCC1 (stereo not shown) [Compound 15, 1-(4-chlorophenyl)-1-[1-(2-pyridyl)cyclopentyl]-2-(1,2,4-triazol-1-yl)ethanol]
≥ 80%: inhibition of growth at 200 ppm [6] | pest or weed control at 200 ppm [1] | inhibition of growth at 200 ppm [3] | pest or weed control at 200 ppm [4] | pest or weed control at 200 ppm [5]

OC(Cn1cncn1)(c1ccc(F)cc1)C1(c2ccc(-c3cccc(OC(F)(F)F)c3)cn2)CCC1 (stereo not shown) [Compound 18, 1-(4-fluorophenyl)-2-(1,2,4-triazol-1-yl)-1-[1-[5-[3-(trifluoromethoxy)phenyl]-2-pyridyl]cyclobutyl]ethanol]
≥ 80%: inhibition of growth at 200 ppm [6] | pest or weed control at 200 ppm [1] | inhibition of growth at 200 ppm [3]

N#Cc1ccc(C2(C(O)(Cn3cncn3)c3ccc(F)cc3)CC2)nc1 (stereo not shown) [Compound 12, 6-[1-[1-(4-fluorophenyl)-1-hydroxy-2-(1,2,4-triazol-1-yl)ethyl]cyclopropyl]pyridine-3-carbonitrile]
≥ 80%: inhibition of growth at 200 ppm [6] | pest or weed control at 200 ppm [1] | pest or weed control at 200 ppm [4] | pest or weed control at 200 ppm [5]

OC(Cn1cncn1)(c1ccc(Cl)cc1)C1(c2ccccn2)CC1 (stereo not shown) [Compound 1, 1-(4-chlorophenyl)-1-[1-(2-pyridyl)cyclopropyl]-2-(1,2,4-triazol-1-yl)ethanol]
≥ 80%: inhibition of growth at 200 ppm [6] | pest or weed control at 200 ppm [1] | inhibition of growth at 200 ppm [2] | inhibition of growth at 200 ppm [3] | pest or weed control at 200 ppm [4] | pest or weed control at 200 ppm [5]

OC(Cn1cncn1)(c1ccc(Cl)cc1)C1(c2ccc(Cl)cn2)CC1 (stereo not shown) [Compound 11, 1-(4-chlorophenyl)-1-[1-(5-chloro-2-pyridyl)cyclopropyl]-2-(1,2,4-triazol-1-yl)ethanol]
≥ 80%: inhibition of growth at 200 ppm [6] | pest or weed control at 200 ppm [1] | inhibition of growth at 200 ppm [2] | inhibition of growth at 200 ppm [3] | pest or weed control at 200 ppm [4] | pest or weed control at 200 ppm [5]

OC(Cn1cncn1)(c1ccc(F)cc1)C1(c2ccc(C(F)(F)F)cn2)CC1 (stereo not shown) [Compound 13, 1-(4-fluorophenyl)-2-(1,2,4-triazol-1-yl)-1-[1-[5-(trifluoromethyl)-2-pyridyl]cyclopropyl]ethanol]
≥ 80%: inhibition of growth at 200 ppm [6] | pest or weed control at 200 ppm [1] | inhibition of growth at 200 ppm [2] | inhibition of growth at 200 ppm [3] | pest or weed control at 200 ppm [4] | pest or weed control at 200 ppm [5]

OC(Cn1ccnc1)(c1ccc(F)cc1)C1(c2ncc(Br)cc2Cl)CC1 (stereo not shown) [Compound 5, 1-[1-(5-bromo-3-chloro-2-pyridyl)cyclopropyl]-1-(4-fluorophenyl)-2-imidazol-1-yl-ethanol]
≥ 80%: pest or weed control at 200 ppm [1] | pest or weed control at 200 ppm [4] | pest or weed control at 200 ppm [5]

OC(Cn1cncn1)(c1ccc(F)cc1)C1(c2ccc(Cl)cn2)CC1 (stereo not shown) [Compound 14, 1-[1-(5-chloro-2-pyridyl)cyclopropyl]-1-(4-fluorophenyl)-2-(1,2,4-triazol-1-yl)ethanol]
≥ 80%: inhibition of growth at 200 ppm [6] | pest or weed control at 200 ppm [1] | inhibition of growth at 200 ppm [2] | inhibition of growth at 200 ppm [3] | pest or weed control at 200 ppm [4] | pest or weed control at 200 ppm [5]

OC(Cn1cncn1)(c1ccc(F)cc1)C1(c2ccc(Br)cn2)CCC1 (stereo not shown) [Compound 17, 1-[1-(5-bromo-2-pyridyl)cyclobutyl]-1-(4-fluorophenyl)-2-(1,2,4-triazol-1-yl)ethanol]
≥ 80%: inhibition of growth at 200 ppm [6] | pest or weed control at 200 ppm [1] | inhibition of growth at 200 ppm [2] | inhibition of growth at 200 ppm [3] | pest or weed control at 200 ppm [4] | pest or weed control at 200 ppm [5]
